Assay results as given in ChEMBL document CHEMBL1201862, “PubChem BioAssay data set” (2004).
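All cell lines were grown in 96-well plates and treated with compound for 48 hours. Abbreviation: GI50, concentration required for 50% inhibition of growth.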 Active and inactive are the calls of the source. No stated cut-off is given here; in the data, active = GI50 up to about 1.1 µM and inactive = higher.

Assays:
Experiment in all cases: inhibition of tumour cell growth, NCI panel, 48 h
[1] = system: HCT-116
[2] = system: OVCAR-4
[3] = system: SK-MEL-5
[4] = system: SK-MEL-2
[5] = system: OVCAR-5
[6] = system: RXF 393
[7] = system: SNB-75
[8] = system: UACC-62
[9] = system: K562
[10] = system: A549
[11] = system: SF-295
[12] = system: OVCAR-3
[13] = system: COLO 205
[14] = system: TK-10
[15] = system: UO-31
[16] = system: IGROV-1
[17] = system: HOP-62
[18] = system: SK-MEL-28
[19] = system: LOX IMVI
[20] = system: HT-29

| Compound | GI50 [1] | GI50 [2] | GI50 [3] | GI50 [4] | GI50 [5] | GI50 [6] | GI50 [7] | GI50 [8] | GI50 [9] | GI50 [10] | GI50 [11] | GI50 [12] | GI50 [13] | GI50 [14] | GI50 [15] | GI50 [16] | GI50 [17] | GI50 [18] | GI50 [19] | GI50 [20] |
| --- | --- | --- | --- | --- | --- | --- | --- | --- | --- | --- | --- | --- | --- | --- | --- | --- | --- | --- | --- | --- |
| CCCCCCCC/C=C\CCCCCCCCNc1ccn(C2OC(COP(=O)(O)OC3CC(n4cc(F)c(=O)[nH]c4=O)OC3CO)C(O)C2O)c(=O)n1 (stereo not given) | 0.329 µM (active) | > 91.8 µM (inactive) | 10.4 µM (inactive) | > 100 µM (inactive) | > 100 µM (inactive) | 9.62 µM (inactive) | 1.7 µM (inactive) | 0.223 µM (active) | 2.52 µM (inactive) | < 0.0194 µM (active) | 0.638 µM (active) | > 87.5 µM (inactive) | > 47.3 µM (inactive) | > 100 µM (inactive) | 0.198 µM (active) | > 26.7 µM (inactive) | < 0.0255 µM (active) | 32.1 µM (inactive) | 0.122 µM (active) | 4.19 µM (inactive) |
| CN(CCO)CCC1COc2ccccc2O1 (stereo not given) | > 10 µM (inactive) | > 10 µM (inactive) | > 10 µM (inactive) | > 10 µM (inactive) | > 10 µM (inactive) | 7.98 µM (inactive) | > 10 µM (inactive) | > 10 µM (inactive) | > 10 µM (inactive) | > 10 µM (inactive) | > 10 µM (inactive) | > 10 µM (inactive) | > 10 µM (inactive) | > 10 µM (inactive) | > 10 µM (inactive) | > 10 µM (inactive) | > 10 µM (inactive) | > 10 µM (inactive) | > 10 µM (inactive) | > 10 µM (inactive) |
| CC(NNC(=O)c1cc[n+]([BH2-]C#N)cc1)c1ccc(F)cc1 (stereo not given) | > 100 µM (inactive) | > 100 µM (inactive) | > 100 µM (inactive) | > 100 µM (inactive) | > 100 µM (inactive) | > 100 µM (inactive) | > 100 µM (inactive) | > 100 µM (inactive) | > 100 µM (inactive) | > 100 µM (inactive) | > 100 µM (inactive) | > 100 µM (inactive) | > 100 µM (inactive) | > 100 µM (inactive) | > 100 µM (inactive) | > 100 µM (inactive) | > 100 µM (inactive) | > 100 µM (inactive) | > 100 µM (inactive) | > 100 µM (inactive) |
| Clc1ncc(C(Cl)(Cl)Cl)nc1-c1ccccc1 | 1.87 µM (inactive) | 4.04 µM (inactive) | 12.2 µM (inactive) | 2.27 µM (inactive) | 16.1 µM (inactive) | 1.64 µM (inactive) | 2.56 µM (inactive) | 2.56 µM (inactive) | 2.46 µM (inactive) | 6.46 µM (inactive) | 3.63 µM (inactive) | 1.72 µM (inactive) | 1.87 µM (inactive) | 2.3 µM (inactive) | 1.84 µM (inactive) | 2.4 µM (inactive) | 2.26 µM (inactive) | 3.79 µM (inactive) | 4.13 µM (inactive) | 1.82 µM (inactive) |
| N#CSCC1COc2ccccc2O1 (stereo not given) | 5.92 µM (inactive) | > 10 µM (inactive) | 6.87 µM (inactive) | > 10 µM (inactive) | > 10 µM (inactive) | > 10 µM (inactive) | > 10 µM (inactive) | > 10 µM (inactive) | 1.77 µM (inactive) | > 10 µM (inactive) | > 10 µM (inactive) | > 10 µM (inactive) | > 10 µM (inactive) | > 10 µM (inactive) | > 10 µM (inactive) | > 10 µM (inactive) | > 10 µM (inactive) | > 10 µM (inactive) | 3.78 µM (inactive) | > 10 µM (inactive) |
